Assays:
MCF7 cell line = experiment: In vitro cytotoxic activity, MTT method, MCF7; assay type: cell-based, human; conditions: for IC50: MTT
Procedure, shortened: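 MTT assay: cells seeded at 10^5 cells/mL, grown 24 h at 37 °C to a monolayer, then exposed to serial tetrahydroisoquinoline concentrations at 37 °C. MTT (5 mg/mL stock) added for 1–5 h; OD read at 560 nm minus 620 nm background. Doxorubicin as positive control.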

[1] = biological target: T1, Dihydrofolate Reductase (DHFR) (Homo sapiens, UniProt P00374); experiment: DHFR inhibitors assay kit (absorbance 340 nm); assay type: biochemical; conditions: for %inh: DHFR
T1 construct: purchased abcam ab283374
T1 sequence (P00374 1-187): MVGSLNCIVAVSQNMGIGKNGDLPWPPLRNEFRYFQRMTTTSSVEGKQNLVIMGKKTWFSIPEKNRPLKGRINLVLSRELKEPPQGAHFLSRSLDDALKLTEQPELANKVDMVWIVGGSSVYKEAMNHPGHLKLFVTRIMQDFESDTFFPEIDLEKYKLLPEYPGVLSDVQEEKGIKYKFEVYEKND
Experimental: The DHFR inhibitors assay kit was performed according to abcam (code ab283374); (www.abcam.co.jp).
Firstly, Dilute 2 μL Dihydrofolate Reductase with798 μL DHFR Assay Buffer. Then add 98 μL of diluted Dihydrofolate Reductase into desired well(s) containing the out synthesized 8d compound. Add 40 μL of diluted NADPH to each well containing the test samples. Incubate at room temperature for 10–15 min. Add 60 μL of diluted DHFR substrate to each well containing the test samples vortex briefly and keep on ice. Measure the absorbance immediately at 340 nm. Then calculate the inhibition concentration of 8d compound. The data was analyzed and plot by Graphpad prism software.

%inh ([1]; conc 0.01 (log -2)): 27.5%
%inh ([1]; conc 0.1 (log -1)): 38.9%
%inh ([1]; conc 1 (log 0)): 67.1%
%inh ([1]; conc 10 (log 1)): 85.7%
%inh ([1]; conc 100 (log 2)): 93%
IC50 ([1]; read-out: DHFR inhibition (IC50 ± SD)): 199 ± 16 nM
SMILES: CC(=O)c1ccc(NC(=O)c2sc3nc(C)c4c(c3c2N)CC(C)(O)C(C(C)=O)C4c2ccc(N(C)C)cc2)cc1 (stereo not drawn) [Compound 8d, 7-Acetyl-N-(4-acetylphenyl)-1-amino-5,8-dimethyl-8-hydroxy-6-(4-N,N-dimethylaminophenyl)-6,7,8,9-tetrahydrothieno[2,3-c]isoquinoline-2-carboxamide]
IC50 (MCF7 cell line; Homo sapiens, MCF7, MCF7 cell line): 170 nM
Toxicity % (MCF7 cell line; MCF7, Conc. 0.0487 µMol): 21.79%
Viability % (MCF7 cell line; MCF7, Conc. 0.0487 µMol): 78.2125%
Viability % (MCF7 cell line; MCF7, Conc. 0.0975 µMol): 54.4424%
Toxicity % (MCF7 cell line; MCF7, Conc. 0.195 µMol): 54.13%
Viability % (MCF7 cell line; MCF7, Conc. 0.195 µMol): 45.87%
Toxicity % (MCF7 cell line; MCF7, Conc. 0.391 µMol): 65.48%
Viability % (MCF7 cell line; MCF7, Conc. 0.391 µMol): 34.52%
Toxicity % (MCF7 cell line; MCF7, Conc. 0.781 µMol): 88.6%
Viability % (MCF7 cell line; MCF7, Conc. 0.781 µMol): 11.4%
Toxicity % (MCF7 cell line; MCF7, Conc. 1.562 µMol): 93.83%
Viability % (MCF7 cell line; MCF7, Conc. 1.562 µMol): 6.168%
Toxicity % (MCF7 cell line; MCF7, Conc. 3.125 µMol): 94.61%
Viability % (MCF7 cell line; MCF7, Conc. 3.125 µMol): 5.392%
Toxicity % (MCF7 cell line; MCF7, Conc. 6.25 µMol): 96.41%
Viability % (MCF7 cell line; MCF7, Conc. 6.25 µMol): 3.595%
Toxicity % (MCF7 cell line; MCF7, Conc. 12.5 µMol): 97.06%
Viability % (MCF7 cell line; MCF7, Conc. 12.5 µMol): 2.941%
Toxicity % (MCF7 cell line; MCF7, Conc. 25 µMol): 97.55%
Viability % (MCF7 cell line; MCF7, Conc. 25 µMol): 2.451%
IC50 (MCF7 cell line; MCF7 cell line): 117 ± 4 nM

From publication PMC10873978, “Novel tetrahydroisoquinolines as DHFR and CDK2 inhibitors: synthesis, characterization, anticancer activity and antioxidant properties” (BMC Chemistry, 2024)
